Reference: the NIST ThermoML archive (doi:10.1021/acs.jced.6b00786)

Columns and labels:
[1] = 101 kPa, Liquid, Vibrating tube method
[2] = xn = mol fraction of the nth substance listed; details: 101 kPa, Liquid, Vibrating tube method, x2 = 0

NC=O [formamide]
[1]
Details | mass density [kg/m3]
278.15 K | 1146.62
288.15 K | 1138.17
298.15 K | 1129.73
308.15 K | 1121.22
323.15 K | 1108.46
333.15 K | 1099.88

O [water]
[1]
Details | mass density [kg/m3]
274.15 K | 999.899
275.15 K | 999.94
276.15 K | 999.964
277.15 K | 999.972
278.15 K | 999.964
279.15 K | 999.94
280.15 K | 999.901
281.15 K | 999.848
282.15 K | 999.781
283.15 K | 999.699
323.15 K | 988.03
333.15 K | 983.191

O [water] + NC=O
[2]
Details | mass density [kg/m3]
274.15 K | 999.899
275.15 K | 999.94
276.15 K | 999.964
277.15 K | 999.972
278.15 K | 999.964
279.15 K | 999.94
280.15 K | 999.901
281.15 K | 999.848
282.15 K | 999.781
283.15 K | 999.699
323.15 K | 988.03
333.15 K | 983.191
